Molecular target: T1, GPR119 (UniProt Q8TDV5, S309L, species not given)
T1 sequence (Q8TDV5 1-335 S309L): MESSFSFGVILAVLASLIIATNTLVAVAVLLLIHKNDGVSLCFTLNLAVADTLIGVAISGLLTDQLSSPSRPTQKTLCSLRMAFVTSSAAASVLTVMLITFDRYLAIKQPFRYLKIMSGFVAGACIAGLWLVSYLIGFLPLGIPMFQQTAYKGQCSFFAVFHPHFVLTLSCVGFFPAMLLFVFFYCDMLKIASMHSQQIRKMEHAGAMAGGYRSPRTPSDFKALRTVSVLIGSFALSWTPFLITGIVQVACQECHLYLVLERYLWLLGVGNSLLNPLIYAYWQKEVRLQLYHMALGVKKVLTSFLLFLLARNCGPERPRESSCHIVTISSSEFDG
Assay: GPR119 signaling, cyclic AMP (cAMP) HTRF assay
Format: cell-based, human (S309L variant) or murine
Conditions: CHO cells with Gα15 and murine GPR119 or HEK293 Flp-In cells with human GPR119 S309L, read-out: EC50 (agonist activation of GPR119, cAMP)
Text: The title compound was synthesized using 2-{2-[1-(5-chloropyrimidin-2-yl)piperidin-4-yl]cyclopropyl}ethyl 4-methylbenzenesulfonate from step 1 of this example by a general procedure analogous that described in Example 59. LRMS calc: 424.9; obs: 425.01 (M+1). Measurement of GPR119Signaling Using a Cyclic AMP (cAMP) Homogenous Time Resolved Fluorescence (HTRF) Assay
Chinese hamster ovary (CHO) cell lines stably transfected with the permissive guanine nucleotide binding protein alpha 15 (Gα15) and murine GPR119 were maintained in DMEM media containing FBS, penicillin-streptomycin, puromycin, and G418 (geneticin). Alternatively, human embryonic kidney (HEK)293 Flp-In cells (Invitrogen, Carlsbad, Calif.) were stably transfected with a human SNP variant (S309L) of GPR119 and maintained in DMEM media containing FBS, penicillin-streptomycin, and hygromycin. Agonist activation of the GPR119 receptor was measured in receptor transfected cells described above, treated with compounds of this invention, using a commercial homogenous time resolved fluorescence (HTRF) kit for measurement of cAMP (CisBio, Bedford, Mass.). The assay was performed in 96-well half-volume plates (murine) or 384-well plates (human) following the manufacturers instructions. Briefly, suspended cells were incubated with a dose titration of test compound at room temperature for 60 min, lysed, and incubated with HTRF reagents for an additional 60 min. The plate was read using an Envision multilabel reader (Perkin Elmer) adjusted to read time resolved fluorescence and the cAMP concentrations were extrapolated from a cAMP calibration curve. […] The concentration of test compound required to stimulate a half-maximal response (EC50), and efficacy as compared to an internal agonist control, was determined from a sigmoidal 4-parameter curve fit of the resulting plot of normalized activity versus compound concentration.

| SMILES | EC50 [µM] |
| --- | --- |
| Cc1cc(NCC[C@@H]2C[C@@H]2C2CCN(c3ncc(Cl)cn3)CC2)cnc1NC(=O)C1(C)CC1 [Ex 39] | < 0.01 |
| Cc1cc(C#N)cc(NCC[C@@H]2C[C@@H]2C2CCN(c3ncc(Cl)cn3)CC2)n1 [Ex 40, 2-[(2-{(1S,2S)-2-[1-(5-chloropyrimidin-2-yl)piperidin-4-yl]cyclopropyl}ethyl)amino]-6-methylisonicotinonitrile] | 0.01 to 0.05 |
| O=C1Cc2cc(NCC[C@@H]3C[C@@H]3C3CCN(c4ncc(Cl)cn4)CC3)cc(F)c2N1 [Ex 53, 5-[(2-{(1S,2S)-2-[1-(5-chloropyrimidin-2-yl)piperidin-4-yl]cyclopropyl}ethyl)amino]-7-fluoro-1,3-dihydro-2H-indol-2-one] | < 0.01 |
| CC(C)(C)C(=O)Nc1ccc(NCC[C@@H]2C[C@@H]2C2CCN(c3ncc(Cl)cn3)CC2)cn1 [Ex 56, N-{5-[(2-{(1S,2S)-2-[1-(5-chloropyrimidin-2-yl)piperidin-4-yl]cyclopropyl}ethyl)amino]pyridin-2-yl}-2,2-dimethyl propanamide] | < 0.01 |
| O=C1Cc2cc(NCC[C@@H]3C[C@@H]3C3CCN(c4ncc(Cl)cn4)CC3)cc(Cl)c2N1 [Ex 54, 7-chloro-5-[(2-{(1S,2S)-2-[1-(5-chloropyrimidin-2-yl)piperidin-4-yl]cyclopropyl}ethyl)amino]-1,3-dihydro-2H-indol-2-one] | < 0.01 |
| Cc1nnnn1-c1ccc(NCC[C@@H]2C[C@@H]2C2CCN(c3ncc(Cl)cn3)CC2)cn1 [Ex 18, N-(2-{(1S,2S)-2-[1-(5-chloropyrimidin-2-yl)piperidin-4-yl]cyclopropyl}ethyl)-6-(5-methyl-1H-tetrazol-1-yl)pyridin-3-amine] | 0.01 to 0.05 |
| Clc1cnc(N2CCC([C@H]3C[C@H]3CCNc3cnc(-n4cncn4)nc3)CC2)nc1 [Ex 16, N-(2-{(1S,2S)-2-[1-(5-chloropyrimidin-2-yl)piperidin-4-yl]cyclopropyl}ethyl)-2-(1H-1,2,4-triazol-1-yl)pyrimidin-5-amine] | 0.01 to 0.05 |
| Clc1cnc(N2CCC([C@H]3C[C@H]3CCNc3ccc(-c4ccn[nH]4)cc3)CC2)nc1 [Ex 12, N-(2-{(1S,2S)-2-[1-(5-chloropyrimidin-2-yl)piperidin-4-yl]cyclopropyl}ethyl)-4-(1H-pyrazol-5-yl)aniline] | < 0.01 |
| O=C1COC(=O)N1c1ccc(NCC[C@@H]2C[C@@H]2C2CCN(c3ncc(Cl)cn3)CC2)cn1 [Ex 27] | 0.01 to 0.05 |
| O=C1Cc2cc(NCC[C@@H]3C[C@@H]3C3CCN(c4ncc(Cl)cn4)CC3)ccc2N1 [Ex 50, 5-[(2-{(1S,2S)-2-[1-(5-chloropyrimidin-2-yl)piperidin-4-yl]cyclopropyl}ethyl)amino]-1,3-dihydro-2H-indol-2-one] | 0.01 to 0.05 |
| Cc1cc(NCC[C@@H]2C[C@@H]2C2CCN(c3ncc(Cl)cn3)CC2)cnc1NC(=O)C(C)(C)C [Ex 31, N-{5-[(2-{(1S,2S)-2-[1-(5-chloropyrimidin-2-yl)piperidin-4-yl]cyclopropyl}ethyl)amino]-3-methylpyridin-2-yl}-2,2-dimethyl propanamide] | < 0.01 |
| Cc1n[nH]c2ccc(NCC[C@@H]3C[C@@H]3C3CCN(c4ncc(Cl)cn4)CC3)cc12 [Ex 47, N-(2-{(1S,2S)-2-[1-(5-chloropyrimidin-2-yl)piperidin-4-yl]cyclopropyl}ethyl)-3-methyl-1H-indazol-5-amine] | < 0.01 |
| Clc1cnc(N2CCC([C@@H]3C[C@H]3CCNc3ccc(-n4cncn4)nc3)CC2)nc1 (single isomer, unassigned) [Ex 62, trans N-(2-{2-[1-(5-chloropyrimidin-2-yl)piperidin-4-yl]cyclopropyl}ethyl)-6-(1H-1,2,4-triazol-1-yl)pyridin-3-amine] | 0.01 to 0.05 |
| Cn1cc2cc(NCC[C@@H]3C[C@@H]3C3CCN(c4ncc(Cl)cn4)CC3)ccc2n1 [Ex 49, N-(2-{(1S,2S)-2-[1-(5-chloropyrimidin-2-yl)piperidin-4-yl]cyclopropyl}ethyl)-2-methyl-2H-indazol-5-amine] | 0.01 to 0.05 |
| Clc1cnc(N2CCC([C@H]3C[C@H]3CCNc3ccc4[nH]ncc4c3)CC2)nc1 [Ex 42, N-(2-{(1S,2S)-2-[1-(5-chloropyrimidin-2-yl)piperidin-4-yl]cyclopropyl}ethyl)-1H-indazol-5-amine] | < 0.01 |
| O=C1c2ccc(NCC[C@@H]3C[C@@H]3C3CCN(c4ncc(Cl)cn4)CC3)cc2CN1C1CC1 [Ex 46, 5-[(2-{(1S,2S)-2-[1-(5-chloropyrimidin-2-yl)piperidin-4-yl]cyclopropyl}ethyl)amino]-2-cyclopropylisoindolin-1-one] | < 0.01 |
| Clc1cnc(N2CCC([C@H]3C[C@H]3CCNc3cnc(-n4cncn4)cn3)CC2)nc1 [Ex 23, N-(2-{(1S,2S)-2-[1-(5-chloropyrimidin-2-yl)piperidin-4-yl]cyclopropyl}ethyl)-5-(1H-1,2,4-triazol-1-yl)pyrazin-2-amine] | < 0.01 |
| CC1(C(=O)Nc2ccc(NCC[C@@H]3C[C@@H]3C3CCN(c4ncc(Cl)cn4)CC3)cn2)CC1 [Ex 38, N-{5-[(2-{(1S,2S)-2-[1-(5-chloropyrimidin-2-yl)piperidin-4-yl]cyclopropyl}ethyl)amino]pyridin-2-yl}-1-methylcyclopropane carboxamide] | < 0.01 |
| CN(CC[C@@H]1C[C@@H]1C1CCN(c2ncc(Cl)cn2)CC1)c1ccc(S(C)(=O)=O)cc1 [Ex 9, N-(2-{(1S,2S)-2-[1-(5-chloropyrimidin-2-yl)piperidin-4-yl]cyclopropyl}ethyl)-N-methyl-4-(methylsulfonyl)aniline] | 0.05 to 0.2 |
| Clc1cnc(N2CCC([C@H]3C[C@H]3CCNc3ccc(-n4ccnn4)cn3)CC2)nc1 [Ex 8, N-(2-{(1S,2S)-2-[1-(5-chloropyrimidin-2-yl)piperidin-4-yl]cyclopropyl}ethyl)-5-(1H-1,2,3-triazol-1-yl)pyridin-2-amine] | < 0.01 |
| Clc1cnc(N2CCC([C@H]3C[C@H]3CCNc3ccc(-n4cncn4)nc3)CC2)nc1 [Ex 14, N-(2-{(1S,2S)-2-[1-(5-chloropyrimidin-2-yl)piperidin-4-yl]cyclopropyl}ethyl)-6-(1H-1,2,4-triazol-1-yl)pyridin-3-amine] | < 0.01 |
| Clc1cnc(N2CCC([C@H]3C[C@H]3CCNc3ccc(-n4cnnn4)cc3)CC2)nc1 [Ex 10, N-(2-{(1S,2S)-2-[1-(5-chloropyrimidin-2-yl)piperidin-4-yl]cyclopropyl}ethyl)-4-(1H-tetrazol-1-yl)aniline] | < 0.01 |
| CC(C)(C)C(=O)Nc1ccc(NCC[C@@H]2C[C@@H]2C2CCN(c3ncc(Cl)cn3)CC2)nc1 [Ex 30, N-{6-[(2-{(1S,2S)-2-[1-(5-chloropyrimidin-2-yl)piperidin-4-yl]cyclopropyl}ethyl)amino]pyridin-3-yl}-2,2-dimethyl propanamide] | < 0.01 |
| Clc1cnc(N2CCC(C3CC3CCNc3ccc(-n4cncn4)nc3)CC2)nc1 (single isomer, unassigned) [Ex 59, trans-N-(2-{2-[1-(5-chloropyrimidin-2-yl)piperidin-4-yl]cyclopropyl}ethyl)-6-1H-1,2,4-triazol-1-yl)pyridin-3-amine] | 0.01 to 0.05 |
| CC(=O)Nc1ccc(NCC[C@@H]2C[C@@H]2C2CCN(c3ncc(Cl)cn3)CC2)cc1 [Ex 52, N-{4-[(2-{(1S,2S)-2-[1-(5-chloropyrimidin-2-yl)piperidin-4-yl]cyclopropyl}ethyl)amino]phenyl}acetamide] | 0.01 to 0.05 |
| Cc1cc(NCC[C@@H]2C[C@@H]2C2CCN(c3ncc(Cl)cn3)CC2)ncc1NC(=O)C(C)(C)C [Ex 29, N-{6-[(2-{(1S,2S)-2-[1-(5-chloropyrimidin-2-yl)piperidin-4-yl]cyclopropyl}ethyl)amino]-4-methylpyridin-3-yl}-2,2-dimethyl propanamide] | < 0.01 |
| O=C1CCCN1c1ccc(NCC[C@@H]2C[C@@H]2C2CCN(c3ncc(Cl)cn3)CC2)cn1 [Ex 20, 1-{5-[(2-{(1S,2S)-2-[1-(5-chloropyrimidin-2-yl)piperidin-4-yl]cyclopropyl}ethyl)amino]pyridin-2-yl}pyrrolidin-2-one] | 0.01 to 0.05 |
| CC(=O)Nc1cnc(NCC[C@@H]2C[C@@H]2C2CCN(c3ncc(Cl)cn3)CC2)c(C)c1 [Ex 33, N-{6-[(2-{(1S,2S)-2-[1-(5-chloropyrimidin-2-yl)piperidin-4-yl]cyclopropyl}ethyl)amino]-5-methylpyridin-3-yl}acetamide] | 0.01 to 0.05 |

— patent publication US8552022B2, “Substituted cyclopropyl compounds, compositions containing such compounds and methods of treatment” (Merck Sharp & Dohme Corp., priority 2009, dated 2013)
